Data taken from patent US8710298B2, “Heat stable variants of plant adenosine diphosphate glucose pyrophosphorylase small subunit” (University of Florida Research Foundation, Inc., priority 2003, dated 2014).

Legend:
[1] = target: T1, maize endosperm ADP-glucose pyrophosphorylase (AGP) variant QTCL (small subunit BT2 with tyrosine 36 to cysteine and glutamine inserted between serine 34 and th (Zea mays, UniProt P55241+Q947C0, INS34Q/Y36C)); experiment: Activation and inhibition (Assay C, forward direction), QTCL AGP; type: biochemical; conditions: QTCL; effector varied 0-3 mM, 37° C., 10 minutes
T1 construct: purified heterotetramer
T1 sequence (Q947C0 with tags, fused parts or gaps INS34Q/Y36C): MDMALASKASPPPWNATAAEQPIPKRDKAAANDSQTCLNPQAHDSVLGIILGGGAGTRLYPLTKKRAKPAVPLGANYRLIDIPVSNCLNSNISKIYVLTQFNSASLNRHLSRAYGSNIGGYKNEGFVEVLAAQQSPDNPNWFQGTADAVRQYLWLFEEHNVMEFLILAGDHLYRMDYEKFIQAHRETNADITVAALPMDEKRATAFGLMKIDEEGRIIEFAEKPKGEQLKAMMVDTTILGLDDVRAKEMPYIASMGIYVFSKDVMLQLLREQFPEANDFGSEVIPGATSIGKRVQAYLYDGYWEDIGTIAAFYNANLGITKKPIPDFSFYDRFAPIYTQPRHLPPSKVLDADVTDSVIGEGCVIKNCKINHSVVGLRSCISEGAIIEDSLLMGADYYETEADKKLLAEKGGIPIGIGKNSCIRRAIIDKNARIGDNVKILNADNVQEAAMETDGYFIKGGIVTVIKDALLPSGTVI
T1 sequence (P55241 46-516): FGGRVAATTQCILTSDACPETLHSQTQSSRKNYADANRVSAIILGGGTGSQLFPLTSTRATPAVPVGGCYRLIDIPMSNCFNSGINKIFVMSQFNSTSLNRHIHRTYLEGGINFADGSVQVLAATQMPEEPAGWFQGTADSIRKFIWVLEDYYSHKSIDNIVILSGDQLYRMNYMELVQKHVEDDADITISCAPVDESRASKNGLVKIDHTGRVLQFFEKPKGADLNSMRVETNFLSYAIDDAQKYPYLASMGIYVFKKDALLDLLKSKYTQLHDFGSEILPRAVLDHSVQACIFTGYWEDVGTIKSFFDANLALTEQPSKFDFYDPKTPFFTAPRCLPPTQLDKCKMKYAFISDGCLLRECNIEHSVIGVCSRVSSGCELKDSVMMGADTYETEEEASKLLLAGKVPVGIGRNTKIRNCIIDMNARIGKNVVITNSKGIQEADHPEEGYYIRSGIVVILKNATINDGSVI
Description: (§1) The QTCL construct (SEQ ID NO:7) encodes a maize AGP small subunit protein (SEQ ID NO:8) having a change from a tyrosine at amino acid position 36 to a cysteine and an insertion of a glutamine between the serine at amino acid position 34 and the threonine at amino acid position 35.
(§2) The 3-Phosphoglyceric acid (3-PGA) was added at varying amounts, as specified. When varied, the substrates ranged from 0-5 mM. Reactions were terminated after 5 minutes by boiling in a water bath for 1 minute. […] The change in absorbance between the blank and the reaction was used to calculate the amount to PPi produced for each sample. All reactions were linear with time and enzyme concentration. All assay tubes were pre-warmed to 37° C. prior to assaying and were initiated by the addition of enzyme.

[2] = test system: maize endosperm ADP-glucose pyrophosphorylase (AGP) variant QTCL (small subunit BT2 with tyrosine 36 to cysteine and glutamine inserted between serine 34 and …); experiment: as above; type: biochemical, maize (Zea mays); conditions: QTCL compared to wild type AGP
Description: as §1, §2

[3] = target: T2, maize endosperm ADP-glucose pyrophosphorylase (AGP), wild type (small subunit BT2 WT-STYL, SEQ ID NO: 2, with wild type large subunit Shrunken-2) (Zea mays, UniProt P55241+Q947C0); conditions: effector varied 0-3 mM, 37° C., 10 minutes
T2 sequence (Q947C0 1-475): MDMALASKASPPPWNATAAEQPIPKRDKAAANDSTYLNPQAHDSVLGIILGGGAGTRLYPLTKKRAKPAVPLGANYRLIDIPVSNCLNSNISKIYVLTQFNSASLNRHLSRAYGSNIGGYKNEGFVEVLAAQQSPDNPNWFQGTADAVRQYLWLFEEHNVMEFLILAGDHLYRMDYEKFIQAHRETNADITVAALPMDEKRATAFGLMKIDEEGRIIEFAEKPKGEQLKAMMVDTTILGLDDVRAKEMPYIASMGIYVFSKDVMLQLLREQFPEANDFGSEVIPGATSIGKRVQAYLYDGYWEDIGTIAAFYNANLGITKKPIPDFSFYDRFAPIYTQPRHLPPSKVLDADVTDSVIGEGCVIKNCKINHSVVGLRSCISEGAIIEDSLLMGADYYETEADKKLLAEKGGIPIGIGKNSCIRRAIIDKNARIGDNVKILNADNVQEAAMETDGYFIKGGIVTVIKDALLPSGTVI
T2 sequence (P55241 46-516): T1 sequence (P55241 46-516)
Description: (§3) Protein inductions were as described by Greene and Hannah (1998) with a few modifications.
as §2
To determine the extent of activation with or with out 3-PGA, 0.1 or 2.0 μg respectively, of purified maize wt-AGP was incubated for 12.5 minutes in the forward assay. To determine the activation constant for the maize wt AGP, 0.2 μg of purified maize wt-AGP was incubated for 12.5 minutes in the forward assay. 3-PGA concentrations ranged from 0-5.0 mM. Curves were fit using Graph Pad Prism using non-linear regression.

[4] = target: T1, maize endosperm ADP-glucose pyrophosphorylase (AGP) variant QTCL (small subunit BT2 with tyrosine 36 to cysteine and glutamine inserted between serine 34 and th); experiment: Enzyme kinetics (substrates), forward reaction, purified QTCL AGP; type: biochemical
Description: The QTCL construct (SEQ ID NO:7) encodes a maize AGP small subunit protein (SEQ ID NO:8) having a change from a tyrosine at amino acid position 36 to a cysteine and an insertion of a glutamine between the serine at amino acid position 34 and the threonine at amino acid position 35. […] The mutations were verified by sequence analysis.
as §3, §2
The QTCL mutant and wild type enzymes were purified from E. coli as described in the materials and methods.

[5] = target: T2, maize endosperm ADP-glucose pyrophosphorylase (AGP), wild type (small subunit BT2 WT-STYL, SEQ ID NO: 2, with wild type large subunit Shrunken-2)
Description: E. coli strain AC70R1-504, which lacks the functional AGP gene and cannot synthesize glycogen, was transformed with both pMoncSh2 and pMoncBt2 (plasmids containing the large and small subunit of wt-AGP respectively). An overnight culture was grown with constant shaking at 225 rpm at 37° C. in LB media containing 75 ug/ml spectinomycin and 50 μg/ml kanamycin. An aliquot of the overnight culture (12.5 ml) was used to inoculate a 1 L flask containing the same media. The 1 L flask was grown until the OD600 reached 0.5-0.6. The cultures were cooled to room temperature and protein expression was induced by the addition of 0.2 mM isopropyl-beta-D-thiogalactoside (IPTG) and 0.02 mg/ml nalidixic acid. Expression continued for 3 hours at room temperature with constant shaking. Cells were centrifuged at 8000×g supernatant removed and stored as pellets at −80° C.
The 3-Phosphoglyceric acid (3-PGA) was added at varying amounts, as specified. When varied, the substrates ranged from 0-5 mM. Reactions were terminated after 5 minutes by boiling in a water bath for 1 minute. […] The change in absorbance between the blank and the reaction was used to calculate the amount to PPi produced for each sample. All reactions were linear with time and enzyme concentration. All assay tubes were pre-warmed to 37° C. prior to assaying and were initiated by the addition of enzyme. […]

SMILES | Ka (3-PGA) [1] | Ka for the QTCL enzyme, fold higher than wild type AGP [2] | Ka (3-PGA) [3] | Vmax (ATP) ([4]; 10 mM 3-PGA, 37° C., 10 minutes) [µmol/min/mg] | Km ([4]; read-out: Km for ATP, 10 mM 3-PGA, 37° C., 10 minutes) [µM] | Vmax (ATP) ([5]; forward reaction, 10 mM 3-PGA, 37° C., 10 minutes) [µmol/min/mg] | Km ([5]; read-out: Km for ATP, forward reaction, 10 mM 3-PGA, 37° C., 10 minutes) [µM]
O=C(O)[C@H](O)COP(=O)(O)O [3-PGA, 3-phosphoglyceric acid] | 1.08 ± 0.13 | approximately 2 -fold | 0.57 ± 0.055 |  |  |  | 
Nc1ncnc2c1ncn2[C@@H]1O[C@H](COP(=O)(O)OP(=O)(O)OP(=O)(O)O)[C@@H](O)[C@H]1O [ATP] |  |  |  | 23.4 ± 0.53 | 140 ± 10 | 9.25 ± 0.32 | 66 ± 10
